Where two headings read alike, the source gives them in different places.
Columns and labels:
Format in all cases: cell-based
[1] = biological target: protein kinases (human kinome) (Homo sapiens, UniProt O00418); details: experiment wp137
[2] = biological target: protein kinases (human kinome) (Homo sapiens, UniProt Q14680); details: experiment wp131
[3] = biological target: protein kinases (human kinome) (Homo sapiens, UniProt Q6JQN1); details: ACAD10 (Q6JQN1); experiment wp056
[4] = biological target: T1, protein kinases (human kinome) (Homo sapiens, UniProt Q9H2K8); details: for logFC: TAOK3 (Q9H2K8); for logFC TAOK3 (Q9H2K8): direction of change down
T1 sequence (Q9H2K8 1-898): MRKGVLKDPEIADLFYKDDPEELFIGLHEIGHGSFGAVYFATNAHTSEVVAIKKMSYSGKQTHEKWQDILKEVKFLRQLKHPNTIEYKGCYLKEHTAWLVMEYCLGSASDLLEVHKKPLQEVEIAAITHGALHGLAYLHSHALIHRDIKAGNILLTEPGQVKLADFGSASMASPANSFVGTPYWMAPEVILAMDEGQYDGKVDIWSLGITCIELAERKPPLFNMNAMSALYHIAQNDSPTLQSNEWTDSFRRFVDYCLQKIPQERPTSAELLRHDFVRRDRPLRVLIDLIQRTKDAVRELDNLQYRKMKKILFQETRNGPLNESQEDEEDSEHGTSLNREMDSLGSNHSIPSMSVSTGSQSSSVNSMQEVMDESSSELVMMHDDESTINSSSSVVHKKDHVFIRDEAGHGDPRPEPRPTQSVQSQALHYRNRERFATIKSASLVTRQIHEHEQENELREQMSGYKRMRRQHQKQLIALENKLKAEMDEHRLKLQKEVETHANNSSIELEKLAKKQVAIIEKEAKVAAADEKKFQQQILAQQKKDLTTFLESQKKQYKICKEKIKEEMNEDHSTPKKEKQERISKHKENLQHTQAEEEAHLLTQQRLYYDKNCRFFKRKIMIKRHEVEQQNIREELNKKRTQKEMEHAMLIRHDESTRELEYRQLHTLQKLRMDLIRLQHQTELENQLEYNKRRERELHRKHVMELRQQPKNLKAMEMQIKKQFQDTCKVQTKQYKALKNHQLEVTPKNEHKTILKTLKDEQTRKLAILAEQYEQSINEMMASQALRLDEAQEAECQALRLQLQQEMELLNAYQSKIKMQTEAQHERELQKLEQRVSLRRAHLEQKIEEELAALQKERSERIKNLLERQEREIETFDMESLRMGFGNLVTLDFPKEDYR

[5] = biological target: protein kinases (human kinome) (Homo sapiens, UniProt P29317); details: for logFC: EPHA2 (P29317)
Chain of protein kinases (human kinome) (Homo sapiens, UniProt P29317) (P29317 24-976): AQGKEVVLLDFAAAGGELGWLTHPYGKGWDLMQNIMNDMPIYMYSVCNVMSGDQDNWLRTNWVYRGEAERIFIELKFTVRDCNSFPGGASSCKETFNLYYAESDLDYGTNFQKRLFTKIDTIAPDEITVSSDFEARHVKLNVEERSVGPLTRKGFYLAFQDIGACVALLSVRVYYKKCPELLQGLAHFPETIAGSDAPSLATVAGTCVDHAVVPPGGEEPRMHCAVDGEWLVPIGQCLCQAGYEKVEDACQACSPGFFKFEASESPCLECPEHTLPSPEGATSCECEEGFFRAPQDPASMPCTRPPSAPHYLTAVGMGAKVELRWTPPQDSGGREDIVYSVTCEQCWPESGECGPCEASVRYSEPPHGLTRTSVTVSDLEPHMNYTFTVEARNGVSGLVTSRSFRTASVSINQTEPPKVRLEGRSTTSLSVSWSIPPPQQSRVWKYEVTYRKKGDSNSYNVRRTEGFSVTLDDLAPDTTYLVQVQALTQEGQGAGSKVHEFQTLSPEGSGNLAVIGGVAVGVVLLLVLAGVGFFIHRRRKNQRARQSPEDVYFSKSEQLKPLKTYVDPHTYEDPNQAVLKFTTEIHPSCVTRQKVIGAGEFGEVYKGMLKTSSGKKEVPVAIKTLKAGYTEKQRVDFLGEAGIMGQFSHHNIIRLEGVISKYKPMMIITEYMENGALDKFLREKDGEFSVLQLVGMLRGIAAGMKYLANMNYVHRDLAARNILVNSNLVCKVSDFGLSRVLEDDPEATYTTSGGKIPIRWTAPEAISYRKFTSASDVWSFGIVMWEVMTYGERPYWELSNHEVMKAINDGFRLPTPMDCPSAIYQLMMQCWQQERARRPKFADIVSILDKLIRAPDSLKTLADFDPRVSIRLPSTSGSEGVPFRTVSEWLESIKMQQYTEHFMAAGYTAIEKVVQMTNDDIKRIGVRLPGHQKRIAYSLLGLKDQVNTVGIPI

[6] = biological target: protein kinases (human kinome) (Homo sapiens, UniProt Q9UK32)
[7] = biological target: protein kinases (human kinome) (Homo sapiens, UniProt Q86Z02); details: experiment wp133, 4 hr
Chain of protein kinases (human kinome) (Homo sapiens, UniProt Q86Z02) (Q86Z02 whole entry): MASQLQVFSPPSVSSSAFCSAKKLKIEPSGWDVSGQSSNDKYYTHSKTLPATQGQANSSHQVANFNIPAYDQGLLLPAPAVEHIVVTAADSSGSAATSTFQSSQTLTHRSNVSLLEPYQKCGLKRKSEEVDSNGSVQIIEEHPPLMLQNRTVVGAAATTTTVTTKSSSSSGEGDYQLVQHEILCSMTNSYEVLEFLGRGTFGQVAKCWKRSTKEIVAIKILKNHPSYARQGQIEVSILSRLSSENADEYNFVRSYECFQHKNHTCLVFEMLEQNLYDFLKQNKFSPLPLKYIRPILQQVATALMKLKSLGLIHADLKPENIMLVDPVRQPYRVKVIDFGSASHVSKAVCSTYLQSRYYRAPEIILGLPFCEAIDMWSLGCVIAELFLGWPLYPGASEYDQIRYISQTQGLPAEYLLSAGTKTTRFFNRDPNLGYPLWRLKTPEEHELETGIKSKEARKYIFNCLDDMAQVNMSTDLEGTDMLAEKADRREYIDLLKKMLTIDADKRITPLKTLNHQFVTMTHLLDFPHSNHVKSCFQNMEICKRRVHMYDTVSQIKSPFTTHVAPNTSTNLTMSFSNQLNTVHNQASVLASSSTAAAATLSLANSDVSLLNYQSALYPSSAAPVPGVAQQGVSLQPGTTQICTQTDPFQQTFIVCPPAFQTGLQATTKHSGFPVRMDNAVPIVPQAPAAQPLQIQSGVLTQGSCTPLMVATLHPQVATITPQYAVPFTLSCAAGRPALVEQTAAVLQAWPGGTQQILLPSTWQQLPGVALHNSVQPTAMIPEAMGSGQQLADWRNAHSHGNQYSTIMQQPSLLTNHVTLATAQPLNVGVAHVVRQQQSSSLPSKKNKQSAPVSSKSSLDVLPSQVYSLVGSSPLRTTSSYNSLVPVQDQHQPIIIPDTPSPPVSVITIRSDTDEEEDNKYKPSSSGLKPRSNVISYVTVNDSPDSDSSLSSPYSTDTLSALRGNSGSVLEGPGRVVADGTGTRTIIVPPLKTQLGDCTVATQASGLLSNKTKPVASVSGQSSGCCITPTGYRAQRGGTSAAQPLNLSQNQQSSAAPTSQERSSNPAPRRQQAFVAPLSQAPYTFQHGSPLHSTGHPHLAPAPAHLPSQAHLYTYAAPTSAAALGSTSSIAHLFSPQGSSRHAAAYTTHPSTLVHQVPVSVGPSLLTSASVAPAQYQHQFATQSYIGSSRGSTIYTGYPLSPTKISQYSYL

[8] = biological target: protein kinases (human kinome) (Homo sapiens, UniProt P54760); details: experiment wp172
Chain of protein kinases (human kinome) (Homo sapiens, UniProt P54760) (P54760 16-987): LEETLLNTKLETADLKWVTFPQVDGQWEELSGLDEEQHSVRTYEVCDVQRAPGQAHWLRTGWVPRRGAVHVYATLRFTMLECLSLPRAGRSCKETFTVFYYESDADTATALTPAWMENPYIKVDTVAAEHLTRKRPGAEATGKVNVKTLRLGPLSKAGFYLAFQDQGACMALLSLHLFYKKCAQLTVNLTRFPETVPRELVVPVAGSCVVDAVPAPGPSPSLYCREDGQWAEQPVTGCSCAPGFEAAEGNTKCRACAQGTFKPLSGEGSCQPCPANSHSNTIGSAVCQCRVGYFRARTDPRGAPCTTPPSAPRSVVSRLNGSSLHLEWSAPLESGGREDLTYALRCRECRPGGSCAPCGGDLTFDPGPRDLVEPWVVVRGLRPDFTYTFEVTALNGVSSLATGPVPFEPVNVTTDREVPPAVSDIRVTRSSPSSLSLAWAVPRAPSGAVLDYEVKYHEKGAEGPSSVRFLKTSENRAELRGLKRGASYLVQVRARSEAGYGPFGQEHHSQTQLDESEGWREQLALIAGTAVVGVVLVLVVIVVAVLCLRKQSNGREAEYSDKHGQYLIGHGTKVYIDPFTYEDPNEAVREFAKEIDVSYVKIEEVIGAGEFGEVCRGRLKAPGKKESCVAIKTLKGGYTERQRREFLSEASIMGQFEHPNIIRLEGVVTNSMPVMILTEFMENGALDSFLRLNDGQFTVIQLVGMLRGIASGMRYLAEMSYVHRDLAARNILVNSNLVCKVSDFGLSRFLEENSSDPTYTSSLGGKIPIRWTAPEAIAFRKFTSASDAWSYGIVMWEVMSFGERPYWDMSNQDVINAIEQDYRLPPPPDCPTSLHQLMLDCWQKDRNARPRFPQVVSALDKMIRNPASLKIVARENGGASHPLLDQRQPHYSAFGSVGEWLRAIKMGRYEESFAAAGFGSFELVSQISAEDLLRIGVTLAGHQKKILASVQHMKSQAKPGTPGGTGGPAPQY

[9] = biological target: protein kinases (human kinome) (Homo sapiens, UniProt Q96RU7)
Chain of protein kinases (human kinome) (Homo sapiens, UniProt Q96RU7) (Q96RU7 whole entry): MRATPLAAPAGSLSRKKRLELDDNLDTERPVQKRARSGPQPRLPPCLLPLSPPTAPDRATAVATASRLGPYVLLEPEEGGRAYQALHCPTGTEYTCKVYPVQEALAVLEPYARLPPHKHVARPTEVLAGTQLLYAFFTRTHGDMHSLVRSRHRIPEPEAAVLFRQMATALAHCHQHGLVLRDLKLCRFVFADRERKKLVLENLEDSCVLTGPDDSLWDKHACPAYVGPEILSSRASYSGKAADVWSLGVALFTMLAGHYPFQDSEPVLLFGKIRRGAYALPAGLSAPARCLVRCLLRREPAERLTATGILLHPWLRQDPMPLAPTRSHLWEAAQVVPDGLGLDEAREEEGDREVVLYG

[10] = biological target: protein kinases (human kinome) (Homo sapiens, UniProt Q96GD4); details: for logFC AURKB: AURKB Q96GD4
Chain of protein kinases (human kinome) (Homo sapiens, UniProt Q96GD4) (Q96GD4 whole entry): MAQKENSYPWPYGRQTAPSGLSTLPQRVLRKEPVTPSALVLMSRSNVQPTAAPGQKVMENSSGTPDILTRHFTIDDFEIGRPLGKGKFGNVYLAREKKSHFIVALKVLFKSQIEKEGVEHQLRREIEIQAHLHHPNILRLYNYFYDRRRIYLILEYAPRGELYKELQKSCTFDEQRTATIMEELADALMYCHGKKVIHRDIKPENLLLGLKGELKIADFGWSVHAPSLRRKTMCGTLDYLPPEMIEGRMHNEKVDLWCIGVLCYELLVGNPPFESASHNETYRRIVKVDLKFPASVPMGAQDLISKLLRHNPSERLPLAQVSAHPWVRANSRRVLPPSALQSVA

Chain of protein kinases (human kinome) (Homo sapiens, UniProt O00418) (O00418 whole entry): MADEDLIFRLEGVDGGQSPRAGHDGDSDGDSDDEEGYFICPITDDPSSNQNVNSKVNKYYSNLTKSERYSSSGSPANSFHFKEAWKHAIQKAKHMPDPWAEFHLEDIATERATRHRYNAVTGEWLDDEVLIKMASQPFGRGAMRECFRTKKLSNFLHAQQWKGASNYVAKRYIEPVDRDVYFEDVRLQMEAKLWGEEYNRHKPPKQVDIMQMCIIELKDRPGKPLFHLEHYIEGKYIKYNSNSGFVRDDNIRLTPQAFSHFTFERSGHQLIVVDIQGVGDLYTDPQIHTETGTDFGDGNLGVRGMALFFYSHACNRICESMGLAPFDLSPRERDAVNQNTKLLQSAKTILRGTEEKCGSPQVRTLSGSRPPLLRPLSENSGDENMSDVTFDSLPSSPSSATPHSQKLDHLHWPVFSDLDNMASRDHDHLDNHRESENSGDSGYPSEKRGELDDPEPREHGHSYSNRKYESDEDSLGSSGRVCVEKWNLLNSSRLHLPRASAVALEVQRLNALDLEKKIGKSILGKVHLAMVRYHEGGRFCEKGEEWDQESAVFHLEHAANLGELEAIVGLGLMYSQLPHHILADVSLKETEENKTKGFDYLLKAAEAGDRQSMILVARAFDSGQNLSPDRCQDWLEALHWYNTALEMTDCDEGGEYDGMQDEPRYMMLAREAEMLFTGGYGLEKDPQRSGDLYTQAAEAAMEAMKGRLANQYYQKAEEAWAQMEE

## CC(C)S(=O)(=O)c1ccccc1Nc1nc(Nc2ccc(N3CCN(CCOCCOCCNC(=O)CNc4cccc5c4C(=O)N(C4CCC(=O)NC4=O)C5=O)CC3)cc2)ncc1Cl (stereo not shown) [TL12.186]
[1]; direction of change down
  logFC EEF2K (O00418): −0.3443
[1]; protein EEF2K (O00418), down
  logFC EEF2K: −0.3443

## Cc1ncsc1-c1ccc([C@H](C)NC(=O)[C@@H]2C[C@@H](O)CN2C(=O)[C@@H](NC(=O)CCOCCOCCN2CCN(c3ccc(Nc4ncc(Cl)c(Nc5ccccc5S(=O)(=O)C(C)C)n4)cc3)CC2)C(C)(C)C)cc1 [FMF.06.098.1]
[2]; direction of change down
  logFC MELK (Q14680): −0.38
[2]; protein MELK (Q14680), down
  logFC MELK: −0.38

## Cc1ccc(C(=O)Nc2ccc(CN3CCN(CCCOCCOCCOCCNC(=O)COc4cccc5c4C(=O)N(C4CCC(=O)NC4=O)C5=O)CC3)c(C(F)(F)F)c2)cc1C#Cc1cnc2cccnn12 (stereo not shown) [SB1.G.187]
[3]
  logFC: −0.3838
[4]; experiment wp103
  logFC: −0.3727
  logFC TAOK3 (Q9H2K8): −0.3727
[4]; experiment wp107
  logFC: −0.3858
  logFC TAOK3 (Q9H2K8): −0.3858
[5]; experiment wp114
  logFC: −0.401
[5]; experiment wp172
  logFC: −0.4107
[5]; Experiment wp114
  logFC of EPHA2 (P29317): −0.401
[5]; Experiment wp172
  logFC of EPHA2 (P29317): −0.4107

## CC(C)S(=O)(=O)c1ccccc1Nc1nc(Nc2ccc(N3CCN(CCOCCNC(=O)CNc4cccc5c4C(=O)N(C4CCC(=O)NC4=O)C5=O)CC3)cc2)ncc1Cl (stereo not shown) [SK.3.91]
[6]; Experiment wp105, direction of change down
  logFC RPS6KA6 (Q9UK32): −0.83
[6]; protein RPSGKA6 (Q9UK32), experiment wp105, down
  logFC RPSGKA6: −0.83
[7]; direction of change down
  logFC HIPK1 (Q86Z02): −0.4009
[7]; protein HIPK1 (Q86Z02), down
  logFC HIPK1: −0.4009
[8]; direction of change down
  logFC EPHB4 (P54760): −0.5059
[8]; protein EPHB4 (P54760), down
  logFC EPHB4: −0.5059
[9]; Experiment wp114, direction of change down
  logFC TRIB3 (Q96RU7): −1.211
[9]; protein TRIB3 (Q96RU7), experiment wp114, down
  logFC TRIB3: −1.211
[10]; experiment wp160, 4 hr
  logFC AURKB: −0.4984
  logFC of AURKB (Q96GD4): −0.4984
[10]; experiment wp172
  logFC AURKB: −1.11
[10]; Experiment wp172
  logFC of AURKB (Q96GD4): −1.11

From US20240269139A1, “COMPOUNDS FOR TARGETED PROTEIN DEGRADATION OF KINASES” (DANA-FARBER CANCER INSTITUTE, INC., priority 2020, published 2024)
